The results in this text go back to paper PMC6237811, “MutT homologue 1 (MTH1) catalyzes the hydrolysis of mutagenic O6-methyl-dGTP” (Nucleic Acids Research, 2018).

What all share (type): biochemical
In assay [1] the target is T1, human MTH1 (hMTH1, NUDT1) (Homo sapiens, UniProt P36639). Put plainly: Michaelis-Menten kinetics of hydrolysis by purified MTH1 (PPiLight).
In assay [2] the target is T2, rat MTH1 (rnMTH1, rnNUDT1) (Rattus norvegicus, UniProt P53369).
T2 construct: gene Nudt1
The assay can be described thus: hydrolysis by […] purified enzyme, PPiLight assay, […] substrate.

In assay [3] the target is Arabidopsis thaliana NUDT1 (atNUDT1, atNUDX1) (Arabidopsis thaliana, UniProt Q9CA40). The description is as above.
Another assay has as its target T3, zebrafish MTH1 (zfMTH1) (Danio rerio, UniProt Q7ZWC3).
T3 construct: gene nudt1
Put plainly: hydrolysis by purified zfMTH1, malachite green and PPiLight assays.

Assay [4] concerns the target T4, mouse MTH1 (mmMTH1, mmNUDT1) (Mus musculus, UniProt P53368).
T4 construct: gene Nudt1
The assay can be described thus: hydrolysis by […] purified enzyme, PPiLight assay, […] substrate.

Assay [5] deals with T1, human MTH1 (hMTH1, NUDT1). Put plainly: Michaelis-Menten kinetics of hydrolysis by purified MTH1 (PPiLight); HPLC and LC-MS of product.

Chain of Arabidopsis thaliana NUDT1 (atNUDT1, atNUDX1) (Q9CA40 2-147): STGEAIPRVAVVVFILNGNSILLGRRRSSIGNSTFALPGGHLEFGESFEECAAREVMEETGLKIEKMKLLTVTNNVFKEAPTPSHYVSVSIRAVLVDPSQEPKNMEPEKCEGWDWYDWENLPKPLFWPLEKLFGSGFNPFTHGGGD
T3 sequence (Q7ZWC3 whole entry): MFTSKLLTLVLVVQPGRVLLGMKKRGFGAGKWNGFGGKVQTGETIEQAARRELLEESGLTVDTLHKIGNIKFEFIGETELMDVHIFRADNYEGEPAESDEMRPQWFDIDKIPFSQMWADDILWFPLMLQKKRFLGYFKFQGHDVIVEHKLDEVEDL

A word on the Km: it is the substrate concentration at which the rate is half of its maximum. Consider `COc1nc(N)nc2c1ncn2[C@@H]1O[C@H](COP(=O)(O)OP(=O)(O)OP(=O)(O)O)[C@@H](O)[C@H]1O` [O6-methyl-GTP], for which, in assay [1], the Michaelis-Menten constant (Km) stood at 236 ± 44 µM.
For `COc1nc(N)nc2c1ncn2[C@H]1C[C@H](O)[C@@H](COP(=O)(O)OP(=O)(O)OP(=O)(O)O)O1` [O6-methyl-dGTP], the “hydrolysis by 1.5 nM purified enzyme, PPiLight assay, 75 μM substrate” value in assay [2], in assay [3] and in assay [4] was “MTH1 homologues from all tested species but E. coli were found to catalyze the hydrolysis of O6-methyl-dGTP” in each case. Further, the “hydrolysis by purified zfMTH1, malachite green and PPiLight assays” value at zebrafish MTH1 (zfMTH1) was “The zfMTH1 enzyme displays considerable activity with O6-methyl-dGTP with a clear preference over dGTP”. For the same compound, the Km in assay [5] was 15.6 ± 0.2 µM.
